# Measured values from publication PMC11391341, “Rational design and in vitro testing of new urease inhibitors to prevent urinary catheter blockage” (RSC Medicinal Chemistry, 2024).
# “Also recorded” adds a separate entry of the source. Where two headings read alike, the source gives them in different places.
# Columns and labels:
# [1] = molecular target: T1, urease expressed in whole cell Proteus mirabilis (Proteus mirabilis, UniProt P17086); test: Urease activity assay (Berthelot), whole-cell P. mirabilis; format: cell-based; settings: for A1 (dose-response fit parameter) / A2 (dose-response fit parameter): % urease activity; for A1 (dose-response fit parameter) / A2 (dose-response fit parameter) / LOGx0 (dose-response fit): Proteus mirabilis whole cell, Supplementary Table 3; for fold lower IC50 than AHA: whole cell P. mirabilis urease
# T1 construct: Urease in P. mirabilis is intracellular; endogenous in cells; host or cells: Proteus mirabilis B4 (Jenkins Group collection, University of Bath), whole cells
# Protocol: The in vitro assay used to measure the urease activity was the Berthelot assay, which measure the accumulation of ammonia.[54,55] Compounds were tested using whole-cell P. mirabilis B4 (from the Jenkins Group collection, University of Bath). P. mirabilis was cultured overnight, 37 °C with 200 rpm shaking in 10 mL of Luria-Bertani broth (LB, Merck, Germany). The overnight culture was centrifuged, 3100 g, 10 min, at 4 °C (5810 R Eppendorf); the supernatant was discarded, and the pellet resuspended in phosphate buffer saline (PBS, Fisher Scientific, UK). In each well of a 96-well plate (Corning) 10 μL of 0.5% sulfuric acid was added. P. mirabilis (100 μL, 0.004 mg mL^−1) in phosphate buffer was incubated with the desired compound concentration and urea (100 μL, 50 mM in phosphate buffer) for 30 min at 37 °C.
# Experiments were run in triplicate of two technical replicates (n = 6), with 10-fold dilutions of the compounds including a positive and negative control. To each well, 20 μL of 60 mM sodium hydroxide is added. Solution A (50 μL, 106 mM phenol, 191 μM sodium nitroprusside) and solution B (50 μL, 125 mM sodium hydroxide, 125 mM sodium hypochlorite) were added to each well and the plate was incubated for 30 min at 37 °C. The absorbance of the wells was read at 636 nm (SPECTROstar Omega BMG LabTech, Germany). Urease activity was calculated using eqn (1). IC50 was determined using non-linear regression (GraphPad Prism v9).1 [drawing 1]
# P. mirabilis B4 [2] = test: Minimum inhibitory concentration (MIC) assay, P. mirabilis; format: cell-based, Proteus mirabilis
# Protocol: (§1) The compound was dissolved in sterile water with 5% (v/v) DMSO. To the first column on a 96-well plate (Corning, UK), 200 μL of compound was added, it was then serially diluted two-fold (100 μL) across the plate to column 10. A subculture of P. mirabilis (1 × 10^6 CFU mL^−1) or E. coli NSM59 (1 × 10^6 CFU mL^−1, from the Jenkins Group collection, University of Bath), 100 μL, was added to all columns 1–10. LB broth only was added to column 11, the negative control and 200 μL of P. mirabilis/E. coli subculture was added to column 12, the positive control. The plate was incubated at 37 °C for 18 h, using a SPECTROstar Omega plate reader (BMJ LabTech) the absorbance at 600 nm was measured at regular time points during the 18 h incubation. The plate was shaken for 10 s, at 200 rpm prior to a reading being taken. The MIC was defined as the lowest concentration of compound that inhibited growth and the highest concentration that permitted bacterial growth. Initially, this was done through visualization of the plate after 18 h but also through examination of the growth curves measured at OD600.
# E. coli NSM59 = test: Minimum inhibitory concentration (MIC) assay, E. coli; format: cell-based, Escherichia coli
# Protocol: as §1
# [3] = Delivery across the catheter balloon into artificial urine (UV-vis); format: physicochemical; settings: 37 °C, 12 h
# Protocol: Delivery through the permeable balloon was measured using UV-vis spectroscopy with a quartz cuvette (pathlength 1 cm) (Agilent Cary 60 UV-vis spectrometer). Calibration curves for AHA (Sigma) and N,N′-bis(3-pyridinylmethyl)thiourea (Flurochem, Bis-TU (A11)) were prepared using absorbances 235 nm and 239 nm, respectively (Fig. S5 ^†). Sterile 50 mL beakers were used to mimic the bladder; catheters were inflated with compound solutions, AHA (320 mM) or Bis-TU (85 mM). Biomodics IPN catheters were compared to standard all-silicone catheters (Tiga-Med, Germany). Beakers were filled with artificial urine, prepared according to Nzakizwanayo et al., 30 mL was added to the beakers which were sealed with parafilm and incubated at 37 °C.[45] Every hour for 12 h, 1 mL was removed from the artificial urine surrounding the catheter balloon and the absorbance spectra was measured. The 1 mL was returned to the beaker, so the volume remained constant. The quantity of compound released over time was determined using the calibration curves. Limit of detection (LOD) was calculated by eqn (2), where σ is the standard deviation of the lowest concentration.2 [drawing 2]
# P. mirabilis B4 [4] = test: In vitro bladder model of the catheterized urinary tract; format: cell-based, Proteus mirabilis; settings: balloon inflated with 20 mM compound, Biomodics IPN catheter
# Protocol: The in vitro bladder model of a catheterized urinary tract enables the simulation of the crystalline biofilm and measurement of the blockage of the catheter caused by a P. mirabilis infection.[44,45] The artificial bladders were infected with a high inoculum of bacteria to mimic a late-stage CAUTI, average inoculation was 3.36 × 10^7 CFU mL^−1. Each model was catheterized with a Biomodics IPN catheter, and the balloons were inflated with 20 mM AHA in a 9 : 1 mixture of saline and DMSO; 20 mM Bis-TU in a 9 : 1 mixture of saline and DMSO; and the control bladder a 9 : 1 mixture of saline and DMSO. The artificial bladders were allowed to equilibrate over 18 h before inoculation. There is approximately a four-fold dilution during the diffusion of the compound in the artificial urine (∼5 mM at the start), however, this concentration changes once the pumps start because of the continual dilution from the filling of the bladder from the ‘kidneys’ and the drainage via the catheter. Monitoring of the pH and CFU mL^−1 in the bladder allowed tracking of the experiment (Fig. 6A and B). […] The blockage of the catheters was the end of the experiment and allowed determination of whether the compounds could increase the lifetime of the catheter (Fig. 6C).
# In vitro bladder models were set up as described by Nzakizwanayo et al., the flow rate was set to run at 0.8 mL min^−1 using a Watson-Marlow 323S/D (030.3134.3DU) pump.[45] The artificial bladders were maintained at 37 °C and catheterized with Biomodics IPN catheters (donated by Biomodics ApS). Balloons were inflated with 10 mL of the following solutions: control bladder: a 9 : 1 mixture of saline (150 mM sodium chloride) and DMSO; Bis-TU bladder: 20 mM Bis-TU in a 9 : 1 mixture of saline and DMSO; and AHA bladder: 20 mM AHA in a 9 : 1 mixture of saline and DMSO. The models were set up and filled with artificial urine until they started to drain, the pump was then paused, and the compound solution allowed to equilibrate with the artificial urine in the bladder for 18 h. P. mirabilis B4 (from the Jenkins Group bacteria collection) was grown at 37 °C overnight with 200 rpm shaking in 10 mL of LB (Merck, Germany). […] Inoculation and CFU was determined by the Miles and Misra quantification technique.[56] At regular time intervals during the experiment, a sample was taken aseptically from each artificial bladder for bacterial quantification and to measure the pH. The end of the experiment was determined when the bladders blocked. Additionally, the artificial bladders were monitored by time-lapse photography overnight using a Nikon D3100 camera with photos taken every 2 min.
# HepG2 cells = test: HepG2 mammalian cell viability (MTT assay); format: cell-based; settings: for survival of HepG2 cells: 10 mM, 24 h incubation
# Protocol: Freezer stocks of HepG2 cells were defrosted and re-suspended in Dulbecco's Eagle medium (DMEM) complete (Gibco, this contains minimum essential media (MEM, Gibco)). A T75 flask (Nunc) was seeded with 10 mL of complete DMEM. Cells were grown for 3–4 days, a 37 °C, 5% CO2, to achieve adherent cells. Old media was removed and 5 mL of PBS added to wash the cells, this was then aspirated. Cells were incubated with 3 mL, 0.25% trypsin (Gibco), and PBS (previously warmed to 37 °C) for 7 min at 37 °C. After incubation cells were checked using a microscope (Nikon TMS inverted phase contrast) to confirm that they were no longer adherent. Cells were dissociated with 4 mL of media and re-suspended by pipetting 10 mL approximately 20 times. Cells were centrifuged for 3 min at 1000 rpm, media was aspirated, and pellet was resuspended in 1 mL of media. Cells were counted using a hemocytometer and new flasks were reseeded with 200 μL of cells to 10 mL of media. To maintain stocks, cells were sub-cultured every 2–3 days.
# Compounds, AHA and Bis-TU, were prepared at 10 mM with 1% DMSO in DMEM media. Varying concentrations of compounds were prepared by serial dilution across at 96-well plate (100 μL). MTT (Invitrogen) assay was used to measure the metabolic activity of the HepG2 cells. MTT (1 mg mL^−1) in media was filter sterilized and cell culture plates, 96-well (Nunc), were seeded with 1 × 10^4 cells per well and grown for 24 h. Media/compound was removed and MTT (100 μL) was added for 60 min at 37 °C and then removed. Isopropanol (150 μL) was added and the plate was incubated in foil for 15 min on an orbital shaker. Absorbance was measured at 590 nm (reference filter at 620 nm) (Sunrise, Tecan). The % survival was calculated as per eqn (4).4 [drawing 4]
# [5] = Solubility (statement in conclusions); format: physicochemical
# T1 sequence (P17086 whole entry): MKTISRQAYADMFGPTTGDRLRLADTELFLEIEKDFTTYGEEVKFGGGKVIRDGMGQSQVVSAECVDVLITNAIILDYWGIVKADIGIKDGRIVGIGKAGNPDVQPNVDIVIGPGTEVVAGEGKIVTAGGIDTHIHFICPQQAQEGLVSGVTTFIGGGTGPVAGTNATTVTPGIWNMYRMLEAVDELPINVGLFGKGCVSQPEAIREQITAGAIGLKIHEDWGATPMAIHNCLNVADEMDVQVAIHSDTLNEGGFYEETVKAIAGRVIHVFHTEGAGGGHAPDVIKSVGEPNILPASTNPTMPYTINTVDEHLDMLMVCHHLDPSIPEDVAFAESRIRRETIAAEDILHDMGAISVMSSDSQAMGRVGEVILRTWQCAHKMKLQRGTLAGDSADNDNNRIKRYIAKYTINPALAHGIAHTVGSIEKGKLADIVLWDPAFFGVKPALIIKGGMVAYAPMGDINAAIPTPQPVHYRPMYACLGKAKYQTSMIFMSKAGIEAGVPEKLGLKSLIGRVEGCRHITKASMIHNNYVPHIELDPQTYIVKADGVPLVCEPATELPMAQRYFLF
Molecule,"IC50 ([1]; whole cell Proteus mirabilis, ± standard deviation)",IC50 [1],A1 (dose-response fit parameter) [1],A2 (dose-response fit parameter) [1],LOGx0 (dose-response fit) [1],fold lower IC50 than AHA [1],inhibitory effect on growth (P. mirabilis B4 [2]),inhibitory effect on growth (E. coli NSM59),release across balloon of Biomodics IPN catheter [3],release across balloon of standard silicone catheter [3],catheter blockage time (lifetime of the catheter) (P. mirabilis B4 [4]),pH in the bladder model (P. mirabilis B4 [4]),quantity of bacteria (CFU mL^−1) in the bladder model (P. mirabilis B4 [4]),survival of HepG2 cells (HepG2 cells),"effect on HepG2 cells, AHA vs Bis-TU (HepG2 cells; concentrations below 1.25 mM, 24 h)",solubility [5],"IC50 ([1]; whole cell Proteus mirabilis, ± standard deviation, read-out: IC50)"
"NC(=O)CS [Compound 2-MA, 2-mercaptoacetamide, reference compound]",did not fit to a sigmoidal dose–response curve; also recorded: No fit,–,–,–,–,–,–,–,–,–,–,–,–,–,–,–,–
"NC(=S)Nc1ccccc1 [Compound A5, N-phenylthiourea]",–,9.66 µM,-2834%,141.8%,-5.015,–,–,–,–,–,–,–,–,–,–,–,–
"NC(=S)NCc1ccccc1 [Compound A6, benzylthiourea]",–,22.7 µM,5.57%,78.71%,-4.644,–,–,–,–,–,–,–,–,–,–,–,–
"S=C(NCc1cccnc1)NCc1cccnc1 [Compound A11, N,N′-bis(3-pyridinylmethyl)thiourea]",–,1.4 µM,-6.896%,85.9%,-5.851,ca. 25 fold,only a modest inhibitory effect,only a modest inhibitory effect,zero order kinetics release,no release,"significantly outperformed the clinical standard AHA, and the control",lower than that of the AHA and control bladders,comparable across all bladders,affect the survival,no difference,relatively low solubility,–
"O=c1c(O)c(-c2ccc(O)c(O)c2)oc2cc(O)cc(O)c12 [Quercetin, quercetin, reference compound]",–,0.866 µM,-6.874%,68.53%,–,ca. 25 fold,–,–,–,–,–,–,–,–,–,–,–
"Acetohydroxamic acid [AHA, reference compound]",–,–,1.739%,91.3%,-4.436,–,only a modest inhibitory effect,only a modest inhibitory effect,zero order kinetics release,no release,–,–,comparable across all bladders,affect the survival,–,–,36.6 µM
